According to patent publication US20250019385A1, “SPIROCYCLIC ANNULATED 2-AMINO-3-CYANO THIOPHENES AND DERIVATIVES FOR THE TREATMENT OF CANCER” (Boehringer Ingelheim International GmbH, priority 2023, published 2025):

Experiments:
[1] = Plasma protein binding assay (PPB), equilibrium dialysis; format: in vitro ADME; conditions: bovine, 10% FCS in PBS, read-out: PPB 10% FCS (% fu)
Protocol: Binding of test compounds to plasma was determined using equilibrium dialysis (ED) and quantitative mass spectrometry interfaced with liquid chromatography (LC-MS). In brief, ED was performed with dialysis devices consisting of two chambers separated by a semipermeable membrane with a molecular weight cut-off of 5-10 kg/mol. One chamber was filled with 10% FCS in PBS containing 1-10 μmol/L test compound and the other chamber was filled with phosphate-buffer saline (PBS) with or without dextran. The dialysis chamber was incubated for 3-5 hours at 37° C. After incubation, protein was precipitated from aliquots of each chamber and the concentration of test compound in the supernatant of the plasma-containing compartment (cserum) and of the buffer-containing compartment (cbuffer) was determined by LC-MS. The fraction of unbound test compound (not bound to plasma) (f) was calculated according to the following equation: […]

[2] = target: KRAS (WT)::CRAF protein::protein interaction (Homo sapiens (Human), UniProt P01116); test: KRAS TR-FRET assay (KRAS WT::CRAF, GTP); format: binding
Protocol: (§1) This assay measures the inhibitory effect of compounds on KRAS::CRAF protein::protein interactions in the presence of GTP using Time-resolved fluorescence energy transfer (TR-FRET).
(§2) The following wildtype or mutant alleles of KRAS and CRAF protein have been used at the given concentrations:
KRAS (WT) 1-169, N-terminal 6His-tag, C-terminal avi-tag (Boehringer Ingelheim in house protein prep); final assay concentration 15 nM.
(§3) CRAF Ras binding domain, GST-tag, TEV cleavage site (Boehringer Ingelheim in house protein prep); final assay concentration 15 nM.
(§4) Test compounds dissolved in DMSO were dispensed onto assay plates (Proxiplate 384 PLUS, white, PerkinElmer; 6008289) using an Access Labcyte Workstation with the Labcyte Echo 55x. For the chosen highest assay concentration of 100 μM, 150 nl of compound solution was transferred from a 10 mM DMSO compound stock solution. A series of eleven fivefold dilutions per compound was transferred to the assay plate, compound dilutions were tested in duplicates. DMSO was added as backfill to a total volume of 150 nl.
(§5) The assay runs on a fully automated robotic system. To 150 nl of compound dilution 15 μl of a mix including the respective KRAS allele, CRAF (e.g. KRAS (G12D)::CRAF; final assay concentrations see above), GTP nucleotide (Sigma G8877; final assay concentration 10 μM), Lance Eu—W1024 labeled Streptavidin (PerkinElmer, Cat No AD0063; final assay concentration 1.5 nM) and Anti-GST surelight APC (PerkinElmer, Cat No AD0059G; final assay concentration 30 nM) in assay buffer (1×PBS, 0.1% BSA, 0.05% Tween 20) are added into columns 1-23 and 15 μL of the solution without the respective KRAS allele were added to row 24.
(§6) Plates are kept at room temperature in a darkened incubator. After 60 minutes incubation time the signal is measured in a PerkinElmer Envision HTS Multilabel Reader using the TR-FRET LANCE Ultra specs from PerkinElmer.
(§7) Each plate contains 16 wells of a negative control (diluted DMSO instead of test compound; w respective KRAS allele; column 23) and 16 wells of a positive control (diluted DMSO instead of test compound; w/o respective KRAS allele; column 24).
(§8) IC50 values were calculated and analyzed with Boehringer Ingelheim's MEGALAB 50 application using a 4 parametric logistic model.
(§9) Tables of example compounds disclosed herein contain IC50 values determined using the above assays (see Table 44).

[3] = target: KRAS (G12V)::CRAF protein::protein interaction (Homo sapiens (Human), UniProt P01116, C118S/G12V); test: KRAS TR-FRET assay (KRAS G12V::CRAF, GTP); format: binding
Protocol: as §1, §2
KRAS (G12V) 1-169, C118S, N-terminal 6His-tag, C-terminal avi-tag (Boehringer Ingelheim in house protein prep); final assay concentration 15 nM.
as §3, §4, §5, §6, §7, §8, §9

AsPC-1 cells = test: AsPC-1 CTG proliferation assay (120 h) (pancreatic cancer, G12D); format: cell-based; conditions: Homo sapiens, ASPC1
Protocol: (§10) AsPC-1 cells (ATCC CRL-1682) are dispensed into black 384-well plates, flat and clear bottom (Greiner, PNr. 781091) at a density of 500 cells per well in 60 μl RPMI ATCC-Formulation (PAN P04-18047)+10% FCS (fetal calf serum, HyClone, SH30084.03). Cells are incubated overnight at 37° C. in a humidified tissue culture incubator at 5% CO2. Compounds (10 mM stock in DMSO) are added at logarithmic dose series using the ECHO acoustic liquid handler system (Beckman Coulter), normalizing for added DMSO and including DMSO controls. All compound treatments are performed in technical duplicates. For the TO time point measurement, untreated cells are analyzed at the time of compound addition. Plates are incubated for 120 h, and cell viability is measured using CellTiter-Glo luminescent cell viability reagent (Promega product code G7570). Viability (stated as percent of control) is defined as relative luminescence units RLU of each well divided by the RLU of cells in DMSO controls. IC50 values are determined from viability measurements by non-linear regression using a four-parameter model.
(§11) IC50 values of representative compounds according to the invention measured with these assays in the indicated cell lines are presented in Table 46.

[4] = target: KRAS (G12D)::CRAF protein::protein interaction (Homo sapiens (Human), UniProt P01116, G12D); test: KRAS TR-FRET assay (KRAS G12D::CRAF, GTP); format: binding
Protocol: as §1, §2
KRAS (G12D) 1-169, N-terminal 6His-tag, C-terminal avi-tag (Xtal BioStructures, Inc.); final assay concentration 15 nM,
as §3, §4, §5, §6, §7, §8, §9

SK-CO-1 cells = test: SK-CO-1 CTG proliferation assay (120 h) (CRC, G12V); format: cell-based; conditions: Homo sapiens
Protocol: as §10, with “SK—CO-1” for “AsPC-1”, “HTB-39)” for “CRL-1682)”, “EMEM (Sigma M5650)+10%” for “RPMI ATCC-Formulation (PAN P04-18047)+10%”
as §11

Chain of KRAS (G12D)::CRAF protein::protein interaction (P01116 other isoform, or with tags, fused parts or gaps G12D): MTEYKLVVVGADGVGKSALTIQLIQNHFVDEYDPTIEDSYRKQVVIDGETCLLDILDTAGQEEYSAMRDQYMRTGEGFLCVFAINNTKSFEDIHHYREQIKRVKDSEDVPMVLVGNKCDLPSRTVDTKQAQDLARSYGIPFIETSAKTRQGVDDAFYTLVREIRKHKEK
Chain of KRAS (G12V)::CRAF protein::protein interaction (P01116 other isoform, or with tags, fused parts or gaps G12V/C118S): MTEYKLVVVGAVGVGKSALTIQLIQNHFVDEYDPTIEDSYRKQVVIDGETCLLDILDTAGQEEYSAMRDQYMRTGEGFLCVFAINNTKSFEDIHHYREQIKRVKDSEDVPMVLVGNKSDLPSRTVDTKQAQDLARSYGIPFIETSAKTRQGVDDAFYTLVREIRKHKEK
Chain of KRAS (WT)::CRAF protein::protein interaction (P01116 other isoform, or with tags, fused parts or gaps): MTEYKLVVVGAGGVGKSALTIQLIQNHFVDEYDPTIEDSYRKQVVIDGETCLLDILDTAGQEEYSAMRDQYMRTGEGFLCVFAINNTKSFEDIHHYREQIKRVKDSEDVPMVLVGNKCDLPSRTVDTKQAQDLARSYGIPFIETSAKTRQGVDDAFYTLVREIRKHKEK

| fraction unbound [1] | IC50 [2] | IC50 [3] | IC50 (AsPC-1 cells) | IC50 [4] | IC50 (SK-CO-1 cells) | Structure (SMILES) |
| --- | --- | --- | --- | --- | --- | --- |
| 0.26 | 53 nM | 26 nM | 1300 nM | 53 nM | 11 nM | C[C@H](Oc1nc(-c2onc3c2CCC[C@@]32CCCc3sc(N)c(C#N)c32)nc2c1n(C)c(=O)n2[C@@H]1CCOC1)C12CCCN1CCC2 [I-25] |
| 0.17 | 50 nM | 22 nM | 854 nM | 58 nM | 10 nM | C[C@H](Oc1nc(-c2onc3c2CCC[C@@]32CCCc3sc(N)c(C#N)c32)nc2c1n(C)c(=O)n2[C@@H]1CCOC1)[C@@H]1CC[C@H](C)N1C [I-26] |
| 0.15 | 462 nM | 196 nM | 2300 nM | 410 nM | 55 nM | C[C@H](Oc1nc(-c2onc3c2CCC[C@@]32CCCc3sc(N)c(C#N)c32)nc2c1n(C)c(=O)n2[C@@H]1CCOC1)[C@@H]1C[C@H](F)CN1C [I-27] |
| 0.05 | 541 nM | 241 nM | 1720 nM | 434 nM | 67 nM | C[C@H](Oc1nc(-c2onc3c2CCC[C@@]32CCCc3sc(N)c(C#N)c32)nc2c1n(C)c(=O)n2[C@@H]1CCOC1)[C@@H]1C[C@@H]2C[C@@H]2N1C [I-28] |
| 0.39 | 37 nM | 18 nM | 322 nM | 85 nM | 1 nM | C[C@H](Oc1nc(-c2onc3c2CCC[C@@]32CCCc3sc(N)c(C#N)c32)nc2c1n(C)c(=O)n2[C@@]12COC[C@@H]1C2)[C@@H]1CCCN1C [I-29] |
| 0.08 | 153 nM | 102 nM | 972 nM | 163 nM | 11 nM | CCn1c(=O)n([C@@H]2CCCOC2)c2nc(-c3onc4c3CCC[C@@]43CCCc4sc(N)c(C#N)c43)nc(O[C@@H](C)[C@@H]3CCCN3C)c21 [I-30] |
| 0.07 | 605 nM | 191 nM | 1500 nM | 478 nM | 43 nM | CC(C)n1c(=O)n([C@@H]2CCOC2)c2nc(-c3onc4c3CCC[C@@]43CCCc4sc(N)c(C#N)c43)nc(O[C@@H](C)[C@@H]3CCCN3C)c21 [I-32] |
| 0.34 | 139 nM | 70 nM | 267 nM | 45 nM | 32 nM | C[C@H](Oc1nc(-c2onc3c2CCC[C@@]32CCCc3sc(N)c(C#N)c32)nc2c1ncn2[C@@H]1CCOC1)[C@@H]1CCCN1C [I-38] |
| 0.24 | 52 nM | 62 nM | 353 nM | 50 nM | 14 nM | Cc1nc2c(O[C@@H](C)[C@@H]3CCCN3C)nc(-c3onc4c3CCC[C@@]43CCCc4sc(N)c(C#N)c43)nc2n1[C@@H]1CCOC1 [I-39] |
| 0.09 | 233 nM | 119 nM | 500 nM | 182 nM | 39 nM | Cc1cc2c(O[C@@H](C)[C@@H]3CCCN3C)nc(-c3onc4c3CCC[C@@]43CCCc4sc(N)c(C#N)c43)nc2n1[C@@H]1CCOC1 [I-40] |
| 0.35 | 1830 nM | 405 nM | 980 nM | 362 nM | 18 nM | Cc1cn([C@@H]2CCOC2)c2nc(-c3onc4c3CCC[C@@]43CCCc4sc(N)c(C#N)c43)nc(O[C@@H](C)[C@@H]3CCCN3C)c12 [I-41] |
| 0.11 | 273 nM | 115 nM | 1180 nM | 263 nM | 46 nM | Cc1nn([C@@H]2CCOC2)c2nc(-c3onc4c3CCC[C@@]43CCCc4sc(N)c(C#N)c43)nc(O[C@@H](C)[C@@H]3CCCN3C)c12 [I-42] |
| 0.11 | 326 nM | 149 nM | 1390 nM | 255 nM | 56 nM | C[C@H](Oc1nc(-c2onc3c2CCC[C@@]32CCCc3sc(N)c(C#N)c32)nc2c1cnn2[C@@H]1CCOC1)[C@@H]1CCCN1C [I-43] |
| 0.34 | 33 nM | 12 nM | 76 nM | 25 nM | 3 nM | C[C@H](Oc1nc(-c2onc3c2CCC[C@@]32CCCc3sc(N)c(C#N)c32)nc2c1COC[C@]21CCOC1)[C@@H]1CCCN1C [I-54] |
| 0.09 | 54 nM | 61 nM | 323 nM | 41 nM | 4 nM | CO[C@H]1CCN(C)[C@@H]1[C@H](C)Oc1nc(-c2noc3c2CCC[C@@]32CCCc3sc(N)c(C#N)c32)nc2c1n(C)c(=O)n2[C@@H]1CCOC1 [II-1] |
| 0.19 | 52 nM | 24 nM | 338 nM | 32 nM | 3 nM | C[C@H](Oc1nc(-c2noc3c2CCC[C@@]32CCCc3sc(N)c(C#N)c32)nc2c1n(C)c(=O)n2[C@@H]1CCOC1)[C@@H]1CCCN1C [II-2] |
| 0.1 | 81 nM | 50 nM | 300 nM | 97 nM | 10 nM | C[C@H](Oc1nc(-c2noc3c2CCC[C@@]32CCCc3sc(N)c(C#N)c32)nc2c1cnn2[C@@H]1CCOC1)[C@@H]1CCCN1C [II-4] |
| 0.13 | 24 nM | 11 nM | 62 nM | 17 nM | 1 nM | C[C@H](Oc1nc(-c2noc3c2CCC[C@@]32CCCc3sc(N)c(C#N)c32)nc2c1COC[C@]21CCOC1)[C@@H]1CCCN1C [II-8] |
| 0.07 | 581 nM | 142 nM | 1070 nM | 283 nM | 101 nM | C[C@H](Oc1nc(-c2noc3c2CCC[C@@]32CCCc3sc(N)c(C#N)c32)nc2c1COC[C@@]21CCOC1)[C@@H]1CCCN1C [II-9a] |
